Each block holds one molecule with its values, some of them ahead of it.
What was measured:
[1] = Solubility of individual coating components in water, ethanol and 1M HCl; format: physicochemical
Method: iii) Preparation of Antioxidant/Stabilizer Formulations: Prior to preparation of the antioxidant/stabilizer coating formulation, solubility of the individual components of each formulation was determined in water, ethanol and 1M HCl. Majority of the components were soluble in water, except for two in ethanol and one in 1M HCl. Both n-propyl gallate and Trolox were soluble in ethanol and only L-Tryptophan in 1M HCl. For each individual coating mixture formulation (i.e. Coatings 1-8), in a separate 25 mL glass vial containing the different components individually weighed out based on their respective wt % (see Table 1, below), Coating 1: 22 ml of solvent was used to make the coating solution (i.e. 20 mL of DI/water+2 ml of ethanol); Coating 2: 20 mL of DI/water added to vial; Coating 3: 18 mL of DI/water added+2 mL of ethanol to vial; Coating 4: 20 mL of DI/water+2 mL of ethanol; Coating 5: 16 mL of DI/water+4 mL of 1M HCl; Coating 6: 12 mL of DI/water+2 mL of ethanol+4 mL of 1M HCl; Coating 7: 20 mL of DI/water; Coating 8: 10 ml of DI/water+4 ml of ethanol+5 ml of 1M HCl.

H7 cells [2] = test: Crystal violet staining of H7 cells on gamma sterilized VN peptide acrylate surface, amino acid blocking; format: cell-based, human; conditions: gamma irradiated; for H7 attachment and growth (crystal violet staining): used as blocking reagent after peptide conjugation
Description: (§1) Acrylate coating: 2-Hydroxyethyl methacryalte, 2-carboxyethyl acrylate, tetra(ethylene glycol) dimethacrylate, Darocur 1173, Irgacure 819 were mixed with ratio of 80:20:3:3:0.1 and dissolved in ethanol at total monomer concentration of 5%. The obtained formulation was spin coated on oxygen plasma treated Zeonor film. After ethanol evaporated, the (meth)acrylate coating was cured using Xenon pulsed UV curing system in nitrogen purged box. Then, the coated films were in-mold-labeled into T-75 Zeonor flasks and used for conjugation directly.
(§2) Peptide conjugation: The acrylate surface was activated for an hour with 1:1 EDC: NHS in DMF. After aspiration of the activation solution, the surface was treated for an hour with 1 mM of the VN peptide (Ac-[…]) (SEQ ID NO:1) in phosphate buffer (pH7.4). After aspiration of the peptide solution, the surface was treated for an hour with 1M ethanolamine adjusted to pH 8.0-8.5 with hydrochloric acid or 0.1M of L-methionine methyl ester hydrochloride adjusted to pH 8 with sodium hydroxide based on experimental design. All reactions were performed at room temperature.
Sterilization: Flasks were packed with nitrogen and desiccant in aluminum pouch for Gamma sterilization. The irradiation dose was 11-18 kGy. Positive control VN-peptide acrylate sample was sanitized with 70% ethanol.
Stem cell culture: H7 cells were sub-cultured into T-75 fasks with desired peptide acrylate surfaces or Matrigel™ coated surfaces (positive control) at the density of 100,000 cell/cm^2 in X-VIVO 10+GF medium. Microscopic examination of cell and colony morphology was performed at day 3 or day 4. Cell number was assessed at day 4 or day 5 by harvesting with collagenase IV/EDTA treatment followed by cell counting with automated cell number/viability analyzer, Vi-Cell (Beckman Coulter). For methionine methyl ester treated surface, a step of rinsing with DPBS was applied to remove amino acid extractables before cell culture.

H7 cells [3] = test: H7 cell count and morphology on gamma sterilized VN peptide acrylate surface after amino acid absorption; format: cell-based, human; conditions: 0.1M absorbed 1 hr, gamma 11-18 kGy
Description: as §1, §2
Amino acid absorption: Peptide conjugated T-75 flask was filled with 10 mL of 0.1M of L-methionine methyl ester hydrochloride adjusted to pH 8 with sodium hydroxide. The flasks were lay flat so that the peptide surfaces were submerged under the amino acid solution and were incubated for 1 hr. This allows positive charged amino acid to be absorbed into negative charged peptide-acrylate coating. Then the amino acid solution was removed and the flasks were dried in vacuum for overnight before packing and sterilization. […]
Stem cell culture: H7 cells were sub-cultured into T-75 fasks with desired peptide acrylate surfaces or Matrigel™ coated surfaces (positive control) at the density of 100,000 cell/cm^2 in X-VIVO 10+GF medium. […] Cell number was assessed at day 4 or day 5 by harvesting with collagenase IV/EDTA treatment followed by cell counting with automated cell number/viability analyzer, Vi-Cell (Beckman Coulter). […]

[4] = Solubility of VN peptide in ethanol; format: physicochemical; conditions: 100% 200-proof ethanol, 0.5 mM or 1 mM, after agitation
Method: iii) Preparation of VN peptide coating solution: A 10 mL 0.5 mM or 1 mM VN coating solution was prepared by weighing out their corresponding masses and dissolving using a 100% 200-proof ethanol as the solvent.

Molecule: N[C@@H](Cc1c[nH]c2ccccc12)C(=O)O [L-Tryptophan]
- solubility in 1M HCl ([1]; 1M HCl): soluble

Molecule: Cc1c(C)c2c(c(C)c1O)CCC(C)(C(=O)O)O2 (stereo not shown) [Trolox]
- solubility in ethanol [1]: soluble

Molecule: NCCO [ethanolamine, reference compound]
- H7 attachment and growth (crystal violet staining) (H7 cells [2]): there were not cells attached or grew

Molecule: COC(=O)[C@@H](N)CCSC.Cl [methionine methyl ester, L-methionine methyl ester hydrochloride]
- H7 attachment and growth (crystal violet staining) (H7 cells [2]): still support good H7 attachment and growth
- cell morphology versus ethanol sanitized surfaces (H7 cells [2]; used as blocking reagent): still not able to much those on ethanol sanitized surfaces
- bioactivity of VN-peptide acrylate surface after Gamma irradiation (H7 cells [3]): maintained
- stem cell morphology versus positive control (H7 cells [3]): comparable
- cell number after 4 days of culture versus ETOH ctr and Matrigel (H7 cells [3]; day 4): comparable

Continued, values first:

- solubility in ethanol [1]: soluble
Molecule: CCCOC(=O)c1cc(O)c(O)c(O)c1 [n-propyl gallate]

- solubility in the ethanol solvent [4]: partial to almost completely soluble
Molecule: Ac-KGGPQVTRGDVFTMP-NH2 (C-terminus assumed) [VN peptide]
